Data taken from ChEMBL document CHEMBL3526039, “Electrophysiological characterization of the polyspecific organic cation transporter plasma membrane monoamine transporter” (Drug Metab Dispos, 2012).

How the values were obtained:
[1] = biological target: T1, Equilibrative nucleoside transporter 4 (Homo sapiens, UniProt Q7RTT9); assay: Induction of human PMAT activity expressed in Xenopus laevis oocytes assessed as induction of inward current at 2.5 mM in NaCl buffer at pH 6 by two-microelectrode voltage-clamp method; assay type: cell-based; settings: pH 6, 2500 µM
T1 sequence (Q7RTT9 whole entry): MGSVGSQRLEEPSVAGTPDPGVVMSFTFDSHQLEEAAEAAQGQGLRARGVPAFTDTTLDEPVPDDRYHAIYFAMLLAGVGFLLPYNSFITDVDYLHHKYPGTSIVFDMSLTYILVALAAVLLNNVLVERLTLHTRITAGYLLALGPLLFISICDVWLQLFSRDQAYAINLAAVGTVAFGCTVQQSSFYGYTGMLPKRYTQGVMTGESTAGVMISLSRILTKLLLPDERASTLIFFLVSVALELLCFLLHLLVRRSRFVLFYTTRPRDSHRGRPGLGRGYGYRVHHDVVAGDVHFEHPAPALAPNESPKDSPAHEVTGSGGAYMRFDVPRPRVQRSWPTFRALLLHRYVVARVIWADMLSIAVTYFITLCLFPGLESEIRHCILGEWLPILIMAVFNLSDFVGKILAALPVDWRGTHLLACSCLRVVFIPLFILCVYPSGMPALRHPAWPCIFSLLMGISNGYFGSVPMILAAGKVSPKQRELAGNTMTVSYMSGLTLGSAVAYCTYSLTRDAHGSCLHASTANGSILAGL

[2] = biological target: T1, Equilibrative nucleoside transporter 4; assay: Induction of human PMAT activity expressed in Xenopus laevis oocytes assessed as induction of inward current at 2.5 mM in NaCl buffer at pH 7.5 by two-microelectrode voltage-clamp method; assay type: cell-based; settings: pH 7.5, 2500 µM
[3] = biological target: T2, PMAT (equilibrative nucleoside transporter 4) (Homo sapiens, UniProt Q7RTT9); assay: in vitro; settings: not told, pH 6
T2 sequence (Q7RTT9 whole entry): T1 sequence (Q7RTT9 whole entry)

[4] = biological target: T2, PMAT (equilibrative nucleoside transporter 4); assay: in vitro; settings: not told, pH 6; remark: listed apart in the source
[5] = biological target: T2, PMAT (equilibrative nucleoside transporter 4); assay: Increase of human PMAT-mediated drug uptake expressed in Xenopus laevis oocytes in NaCl buffer at pH 6 at 100 uM after 60 mins relative to control; settings: Xenopus laevis oocytes expressing human PMAT

Activity [1] | Activity [2] | Km [3] | Km [4] | uptake ratio at 1 h, 100 µM [5] | Structure (SMILES)
-38 nanoampere | -2.02 nanoampere | – | – | – | CN(C)C(=N)N=C(N)N [METFORMIN]
-11.7 nanoampere | -0.627 nanoampere | – | – | – | CC[N+](CC)(CC)CC [TETRYLAMMONIUM]

The remaining lines, values behind:

Structure (SMILES) | Activity [1] | Activity [2] | Km [3] | Km [4] | uptake ratio at 1 h, 100 µM [5]
CN1CC=C(c2ccccc2)CC1 | -62.7 nanoampere | -5.67 nanoampere | – | – | –
NC12CC3CC(CC(C3)C1)C2 [AMANTADINE] | -21.2 nanoampere | -7.26 nanoampere | – | – | –
NCCc1c[nH]cn1 [HISTAMINE] | -110 nanoampere | -30.5 nanoampere | 10 mM | 10 mM | 2
CN1CCC[C@H]1c1cccnc1 [NICOTINE] | -75.7 nanoampere | -6.3 nanoampere | – | – | –
